Holding throughout (format): cell-based
One assay concerns collagen I. Description: Collagen I synthesis by normal human fibroblasts (immuno-labeling). The conditions noted are these: positive control, concentration not given; NHF, 7 days; p<0.01. The method, then: Normal human fibroblasts (NHF) are cultivated in plate MW24 for 24 hours. The cells are in contact or not of test products at various concentrations for 7 days. The synthesis of collagen I is then quantified by immuno-labeling fixed on the layer. Table 7: increase of collagen I on NHF in the presence of the extract of Oxydendrum arboretum cell culture compared with control. (n=4 wells/ 20 photos)

A further assay has as its system Human melanocytes. Briefly: Melanin synthesis in human melanocytes. The conditions noted are these: positive control, concentration not given; 5 days of culture; n=5; p<0.01. The method, then:
Human melanocytes were seeded in 24-well plates. After 24 h of attachment, the cells are in contact with the test products. After 5 days of culture, the layers are rinsed, the total melanins are extracted in sodium hydroxide and assayed spectrophotometrically at 490 nm. For tyrosinase, an identical culture protocol is followed and then the enzyme is extracted from the cells and DOPA oxidase activity is measured spectrophotometrically at 37°C with a solution of L-DOPA to 0.2%. The data are normalized using a viability assay. Table 9: inhibition of melanogenese in the presence of the extract of Oxydendrum arboreum cell culture compared with control. (n=5)

Another assay has as its target T1, tyrosinase (Homo sapiens, UniProt P14679).
T1 sequence (P14679 19-529): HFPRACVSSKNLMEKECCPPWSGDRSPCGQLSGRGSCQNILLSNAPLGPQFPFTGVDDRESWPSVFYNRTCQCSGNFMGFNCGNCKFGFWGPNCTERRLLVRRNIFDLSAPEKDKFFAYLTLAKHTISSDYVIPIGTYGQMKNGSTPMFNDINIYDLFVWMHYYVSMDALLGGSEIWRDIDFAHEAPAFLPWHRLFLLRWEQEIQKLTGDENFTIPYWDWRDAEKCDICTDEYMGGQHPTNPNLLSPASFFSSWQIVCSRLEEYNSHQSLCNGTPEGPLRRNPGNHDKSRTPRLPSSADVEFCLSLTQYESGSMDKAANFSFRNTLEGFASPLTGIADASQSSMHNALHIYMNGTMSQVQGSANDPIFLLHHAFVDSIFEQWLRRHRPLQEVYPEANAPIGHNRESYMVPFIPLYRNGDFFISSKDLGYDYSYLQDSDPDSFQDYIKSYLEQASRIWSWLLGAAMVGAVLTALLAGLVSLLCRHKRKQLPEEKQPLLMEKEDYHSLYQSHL
Briefly: Tyrosinase (DOPA oxidase) activity extracted from human melanocytes. The conditions noted are these: positive control, concentration not given; 5 days of culture; n=5; p<0.01.

For the compound `O=C1O[C@H]([C@@H](O)CO)C(O)=C1O` [Vitamin C], in the assay on collagen I, the “Collagen I Synthesis % change / control” value is on record as “+236% ; p<0.01”.
Turning to `OC[C@H]1O[C@@H](Oc2ccc(O)cc2)[C@H](O)[C@@H](O)[C@@H]1O` [Arbutin], the “Melanin (% Change / Control)” value in the assay with Human melanocytes is given as -56%. Also, on tyrosinase, the “Tyrosinase (% Change / Control)” value is listed as -48%.
